# Source: article PMC2361671, “Preclinical pharmacokinetics and metabolism of a novel prototype DNA-PK inhibitor NU7026” (British Journal of Cancer, 2005)
# Read-outs that look alike come from different tables or passages of the source.
# Experiments:
# DNA-PK = DNA-PK (Homo sapiens, UniProt P78527); assay: DNA-PK inhibition; assay type: biochemical; details: stated in results, no method or reference given; read-out: IC50 inhibiting DNA-PK
# [1] = Plasma pharmacokinetics in mice (LC/MS/MS); assay type: in vivo, Female BALB/c mice
# Procedure: (§1) NU7026 was formulated in 10% DMSO and 5% Tween 20 in saline for i.p. and perorally (p.o.) administration at 20 and 50 mg kg^−1, respectively. For i.v. dosing at 5 mg kg^−1, NU7026 was formulated in 10% ethanol, 25% PEG 200 and 5% Tween 20 in saline. Control animals received the vehicle alone. Groups of three mice were injected per time point. Blood was collected by cardiac puncture following transient anaesthesia with halothane at 0.083, 0.25, 0.5, 1, 2, 4, 6, and 24 h post administration. Following centrifugation at 1500 g for 2 min to obtain plasma, samples were stored at −20°C until analysis. For urinary excretion studies, NU7026 was administered at 5 mg kg^−1 i.v. Urine was collected over 24 h in metabolic cages, and stored at −20°C until required.
# Samples were analysed by liquid chromatography tandem mass spectrometry (LC/MS/MS). Chromatography was performed using a 50 × 4.6 mm ID 5 μm zwitterionic ABZ+ column (Supelco, Poole, Dorset, UK) and a gradient of 20% methanol (MeOH) in formic acid (0.1%) to 100% MeOH over 3 min, followed by an isocratic period at a flow rate of 0.6 ml min^−1. The total run time was 7 min. Detection by multiple reaction monitoring was performed on a TSQ700 triple quadrupole mass spectrometer equipped with an electrospray source and operated in positive ion mode (Thermoquest Ltd, Hemel Hempstead, Herts, UK). The heated capillary was maintained at 280°C and at a voltage of 4.5 kV. The following transitions were monitored: m/z (mass to charge ratio) 282.4 → m/z 171 for NU7026; m/z 262.3 → m/z 121 for NU7031; m/z 300 → m/z 256 for NU7119; m/z 300 → m/z 238 for NU7200. Calibration standards (20, 200, 500, 1000, 2000, 5000, 10 000, 20 000 and 50 000 nM) were prepared in blank mouse plasma. Following the addition of internal standard (30 μl of 2 μM solution of NU7031), plasma proteins were precipitated with 300 μl MeOH. Samples were then centrifuged and 20 μl of supernatant was injected onto the column. Peak area was plotted against concentration and unknown concentrations derived from the linear plot (analysed with Prism 2.01, Graphpad Software, San Diego, CA, USA).
# Pharmacokinetic parameters were evaluated by noncompartmental analysis (model 200 for p.o. and i.p. administration and 201 for i.v. administration) using WinNonlin® Professional Version 3.2 (Pharsight Corporation, Mountain View, CA, USA). For simulation studies, parameters were derived from compartmental analysis.
# [2] = Urinary excretion / metabolite profile in 24 h mouse urine; assay type: in vivo, Female BALB/c mice; details: mice, NU7026 5 mg kg^−1 i.v., LC/MS ion current
# Procedure: as §1
# For metabolism studies, LC/MS and LC/MS/MS were carried out on an LCQ ion trap instrument (ThermoFinnigan, UK). Separation was achieved using the same column as above. A linear gradient of 90% formic acid (0.1%) : 10% MeOH to 10% formic acid (0.1%) : 90% MeOH was run at 1 ml min^−1 from 0.5 to 6.5 min followed by 3.5 min isocratic. The capillary temperature was set to 200°C and the scan range from m/z 50 to m/z 850. For confirmation of metabolite structures, metabolites were spiked in control matrix and MS/MS fragmentation patterns and retention times were compared to those of biological samples.
# [3] = system: ataxia telangiectasia and rad 3-related kinases (ATR); set-up: method as in Veuger et al, 2003, 2004; Griffin et al 2005; details: ref Veuger et al, 2003, 2004; Griffin et al 2005; cited from earlier work
# [4] = system: CH1 human ovarian carcinoma cells; assay: Clonogenic survival assay / radiosensitisation; assay type: cell-based; details: for cell count, % of the radiation control group: P<0.01
# Procedure: These experiments were not designed as classical radiosensitisation experiments, that is, radiation dose finding study, but rather as experiments to investigate the minimum drug exposure required to observe radiosensitisation. CH1 human ovarian carcinoma cells were chosen as as a model because of their relative radiosensitivity (Kelland, personnal communication). They were grown as monolayers in Dubelcco's modified Eagle's medium (Invitrogen, Paisley, Scotland) augmented with 10% heat-inactivated fetal calf serum, 2 mM L-glutamine, minimal essential medium nonessential amino acid (Invitrogen) and 0.5 μg ml^−1 hydrocortisone in a 6.5% CO2/93.5% air atmosphere.
# Cells were seeded at 1000 per 10 ml into […] flasks and left to attach overnight. Each group consisted of triplicate flasks. Following the addition of NU7026 (10 μM) or dimethyl sulphoxide (DMSO) solvent control for 24 h (final concentration of DMSO was 0.5%), cells were irradiated with a cobalt source (^60Co) for 3 min and 9 s at a distance of 40 cm to give a total dose of 2 Gy, or 2 min and 49 s at a distance of 30 cm to give a final dose of 3 Gy, or 6 min and 18 s at a distance of 40 cm to give a total dose of 4 Gy. Control cells were not treated with either drug or ionising radiation. Group 2 cells were treated with NU7026 only and Group 3 cells were irradiated only. Groups 4–7 were treated with NU7026 and irradiated with 2, 3 or 4 Gy. The drug was washed off by aspiration of the medium and rinsing with 10 mM phosphate-buffered saline (PBS) 2 h (Group 4), 4 h (Group 5), 6 h (Group 6) and 24 h (Group 7) after exposure. Following the addition of drug-free medium, cells were left to grow until colonies were visible. Colonies were then counted after 9 days and expressed as a percentage of controls. The doubling time of the cells was approximately 16 h.
# [5] = target: ataxia telangiectasia mutated kinase (ATM); set-up: method as in Veuger et al, 2003, 2004; Griffin et al 2005; details: ref Veuger et al, 2003, 2004; Griffin et al 2005; cited from earlier work
# [6] = target: phosphoinositide 3-kinase; set-up: method as in Veuger et al, 2003, 2004; Griffin et al 2005; details: ref Veuger et al, 2003, 2004; Griffin et al 2005; cited from earlier work
# [7] = Solubility (for constant infusion with osmotic minipumps); assay type: physicochemical; details: for dosing by constant infusion with osmotic minipumps
# [8] = Table 3: each compound at 20 mg kg^−1 i.p. to mice, plasma
# [9] = female, BALB/c, mouse, plasma, ip, 20 mg/kg, Table 3: each compound at 20 mg kg^−1 i.p. to mice, plasma
# [10] = Table 2: parent and metabolites in plasma after NU7026 at 5 mg kg^−1 i.v. to mice
smiles,measurement,setting,value
"C[C@@H]1CN(c2cc(=O)n3ccc4ccccc4c3n2)C[C@H](C)O1 [NU7107, 2-((2S,6R)-2,6-dimethylmorpholin-4-yl)-pyrimido[2,1-a]isoquinolin-4-one]",IC50,DNA-PK,> 10 µM
same,AUC last,[1]; [8],12165 nmol·L/h
same,Cl obs.,[1]; [8],0.11 L/h
same,Vd,[1]; [8],0.12 L
same,half-life,"[1]; female, BALB/c, mouse, ip, Table 3: each compound at 20 mg kg^−1 i.p. to mice, plasma",47.4 min
same,Tmax,"[1]; female, BALB/c, mouse, ip, Table 3: each compound at 20 mg kg^−1 i.p. to mice, plasma, read-out: Tmax",15 min
same,Cmax,[1]; [9],10.4 µM
same,decrease in plasma clearance compared with NU7026,"[1]; mice, 20 mg kg^−1 i.p.",four-fold
same,plasma level 6 h post administration,"[1]; mice, 20 mg kg^−1 i.p.",still detectable
"O=c1cc(NCCOCCO)oc2c1ccc1ccccc12 [NU7200, 2-[2-(2-hydroxyethoxy)-ethylamino]-benzo[H]chromen-4-one]",level in 24 h urine samples,[2],significant amounts
same,AUC last,[1]; [10],143 nmol·L/h
"O=c1cc(N(CCO)CCO)oc2c1ccc1ccccc12 [NU7199, 2-[bis-(2-hydroxyethyl)-amino]-benzo[H]chromen-4-one]",level in 24 h urine samples,[2],significant amounts
same,AUC last,[1]; [10],414 nmol·L/h
O=c1cc(N2CCOC(O)C2)oc2c1ccc1ccccc12 (centres unmarked) [M1],level in 24 h urine samples,[2],significant amounts
"O=c1cc(N2CCOCC2)oc2c1ccc1ccccc12 [NU7026, 2-(morpholin-4-yl)-benzo[H]chromen-4-one]",IC50,[3],> 100 µM
same,AUC last,[1]; [10],3616 nmol·L/h
same,Cl obs.,[1]; [8],0.44 L/h
same,Vd,[1]; [8],0.55 L
same,t1/2,[1]; [8],52.2 min
same,half-life,"[1]; female, BALB/c, mouse, ip, mice, 20 mg kg^−1 i.p., plasma",52.2 min
same,Tmax,"[1]; female, BALB/c, mouse, ip, mice, 20 mg kg^−1 i.p., plasma, read-out: Tmax",4.98 min
same,half-life,"[1]; female, BALB/c, mouse, iv, mice, 5 mg kg^−1 i.v., plasma",73.2 min
same,Tmax,"[1]; female, BALB/c, mouse, iv, mice, 5 mg kg^−1 i.v., plasma, read-out: Tmax",0 min
same,bioavailability,"[1]; female, BALB/c, mouse, plasma, intraperitoneal, mice, i.p. 20 mg kg^−1, assuming linear i.v. pharmacokinetics",20%
same,Cmax,[1]; [9],5.12 µM
same,Cmax,"[1]; female, BALB/c, mouse, plasma, ip, 20 mg/kg, mice, 20 mg kg^−1 i.p., noncompartmental",7.36 µM
same,Cmax,"[1]; female, BALB/c, mouse, plasma, iv, 5 mg/kg, mice, 5 mg kg^−1 i.v., noncompartmental",5.12 µM
same,clearance,"[1]; female, BALB/c, mouse, plasma, iv, 5 mg/kg, mice, 5 mg kg^−1 i.v., plasma, read-out: Cl obs. (converted)",1.5 mL/min
same,clearance,"[1]; female, BALB/c, mouse, plasma, iv, 5 mg/kg, mice, 5 mg kg^−1 intravenous (abstract), read-out: plasma clearance (converted)",1.8 mL/min
same,Vd,"[1]; female, BALB/c, mouse, plasma, iv, mice, 5 mg kg^−1 i.v., based on the elimination phase, read-out: Vd",0.16 L
same,Cmax,"[1]; female, BALB/c, mouse, plasma, po, 50 mg/kg, mice, 50 mg kg^−1 p.o., noncompartmental",2.23 µM
same,Cmax,"[1]; female, BALB/c, mouse, plasma, po, 50 mg/kg, mice, p.o. 50 mg kg^−1 (discussion)",< 2.5 µM
same,half-life,"[1]; female, BALB/c, mouse, po, mice, 50 mg kg^−1 p.o., plasma",88.8 min
same,Tmax,"[1]; female, BALB/c, mouse, mice, oral 50 mg kg^−1, plasma, read-out: time of maximum concentration after administration",60 min
same,AUC last,"[1]; mice, 5 mg kg^−1 i.v., plasma",3616 nM l h^−1
same,Vd,"[1]; mice, 20 mg kg^−1 i.p., based on the elimination phase",0.55 L
same,AUC last,"[1]; mice, 20 mg kg^−1 i.p., plasma",2940 nM l h^−1
same,Cl obs.,"[1]; mice, 20 mg kg^−1 i.p., plasma",0.44 L/h
same,Vd,"[1]; mice, 50 mg kg^−1 p.o., based on the elimination phase",1.34 L
same,AUC last,"[1]; mice, 50 mg kg^−1 p.o., plasma",5191 nM l h^−1
same,Cl obs.,"[1]; mice, 50 mg kg^−1 p.o., plasma",0.63 L/h
same,plasma level at 4 h post administration,"[1]; mice, i.v. 5 mg kg^−1",undetectable
same,time compound levels were above 10 μM,"[1]; mice, i.v. administration, plasma",less than 1 h
same,maximum concentration,"[1]; mice, oral 50 mg kg^−1, plasma",2.2 µM
same,oral bioavailability,"[1]; mice, p.o. 50 mg kg^−1 (abstract prints 20 mg kg^−1), based on linear i.v. pharmacokinetics",15%
same,"cell survival, % of the solvent-treated group",[4]; 10 μM NU7026 combined with 2 Gy radiation,15%
same,"cell survival, % of the solvent-treated group",[4]; 10 μM NU7026 combined with 3 Gy radiation,9%
same,"cell survival, % of the solvent-treated group",[4]; 10 μM NU7026 combined with 4 Gy radiation,1%
same,radiosensitisation vs radiation alone,"[4]; 2 h treatment with 10 μM NU7026 + 3 Gy, t test P>0.1",no significant difference
same,"cell count, % of the radiation control group",[4]; 4 h exposure to 10 μM NU7026 + 3 Gy,61%
same,"cell count, % of the radiation control group",[4]; 6 h exposure to 10 μM NU7026 + 3 Gy,47%
same,"cell count, % of the radiation control group",[4]; 24 h exposure to 10 μM NU7026 + 3 Gy,13%
same,activity at 10 µM,"[4]; Homo sapiens, Ovarian carcinoma cell, NU7026 alone, 10 μM for 24 h, no radiation, read-out: surviving fraction, % of control cells",91 ± 13%
same,IC50,[5],> 100 µM
same,IC50,[6],13 µM
same,solubility,[7],insufficient solubility
